Values of other authors in publication PMC7235863, “Benzamide Derivatives Targeting the Cell Division Protein FtsZ: Modifications of the Linker and the Benzodioxane Scaffold and Their Effects on Antimicrobial Activity” (Antibiotics, 2020).
≈ marks a conversion by molar mass, not a printed value.

Assays:
[1] = test system: Methicillin Sensitive S. aureus; settings: Methicillin Sensitive S. aureus; ref 10 (Z2, Z3), 11 (TXY436), 12 (I, II); cited from earlier work
E. coli AcrAB– = settings: ref 10 (Z2, Z3), 11 (TXY436), 12 (I, II); cited from earlier work
[2] = test system: selected Gram-negative strains; design: method as in PMID 24637241; settings: after genetic inactivation of AcrAB or its inhibition by PaβN ref 11; cited from earlier work
E. coli ATCC 25922 = test system: E. coli ATCC 25922; design: method as in PMID 31750973; settings: in-house reference compounds ref 12; cited from earlier work
ESBL E. coli = test system: ESBL E. coli; design: method as in PMID 31750973; settings: in-house reference compounds ref 12; cited from earlier work
E. coli N43 = test system: E. coli N43; design: method as in PMID 31750973; settings: E. coli N43 (AcrAB knockout); in-house reference compounds ref 12; cited from earlier work
Sa cells = test system: Sa cells; design: method as in PMID 31750973; settings: Sa cells incubated with the compounds ref 12; cited from earlier work
E. coli WildType = test system: E. coli WildType; design: method as in earlier work; settings: ref 10 (Z2, Z3), 11 (TXY436), 12 (I, II); cited from earlier work

Row | SMILES | MIC [1] [µg/mL] | MIC (E. coli AcrAB–) [µg/mL] | MIC [2] [µg/mL] | MIC (E. coli ATCC 25922) [µg/mL] | MIC (ESBL E. coli) [µg/mL] | MIC (E. coli N43) [µg/mL] | Morphometric analysis by TEM (Sa cells) | MIC (E. coli WildType) [µg/mL]
1 | CN(C)CNC(=O)c1c(F)ccc(OCc2nc3cc(Cl)cnc3s2)c1F [TXY436] | 1.0 (≈ 2.42 µM) | 8 (≈ 19.4 µM) | 8 (≈ 19.4 µM) | – | – | – | – | –
2 | Cc1nc(-c2ccc3c(c2)OC(COc2ccc(F)c(C(N)=O)c2F)CO3)no1 (stereo not drawn) [II] | 0.6 (≈ 1.49 µM) | 16 (≈ 39.7 µM) | – | >100 | >100 | 16 (≈ 39.7 µM) | significant elongation in cellular dimension, bacterial swelling and cell desegregation | –
3 | CC[n+]1c(/C=C/N(C)c2ccccc2)n(-c2ccccc2)c2ccc(-c3nc4ccccc4s3)cc21 [Compound Z2] | 0.6 | 2.5 | – | – | – | – | – | 20
